Values after ≈ are worked out from the molar mass of the structure shown. Active and inactive are the calls of the source. The rule behind the calls is not given here.
Key:
[1] = system: Staphylococcus aureus; test: Antibacterial activity against methicillin-resistant Staphylococcus aureus assessed as reduction in bacterial growth; format: functional
[2] = Aqueous solubility of compound in phosphate buffer at pH 7.4 incubated for 16 hrs by HPLC analysis; format: physicochemical
[3] = Cytotoxicity against African green monkey Vero cells assessed as reduction in cell viability incubated for 72 hrs by MTT assay; format: toxicity, cell-based; settings: chlorocebus sabaeus
[4] = system: Staphylococcus aureus; test: Antibacterial activity against methicillin/ceftriaxone/meropenem/gentamycin/linezolid resistant Staphylococcus aureus NRS 100 assessed as reduction in bacterial growth incubated for 18 to 24 hrs by broth dilution method; format: functional; settings: time 18-24 hrs
[5] = Metabolic stability in human liver microsome assessed as half life at 1 uM preincubated for 5 mins followed by NADPH addition and measured after 60 mins by LC-MS/MS analysis; format: ADME; settings: liver microsomes, time 65 min
[6] = system: Staphylococcus aureus; test: Antibacterial activity against methicillin/ceftriaxone/meropenem resistant Staphylococcus aureus NRS 129 assessed as reduction in bacterial growth incubated for 18 to 24 hrs by broth dilution method; format: functional; settings: time 18-24 hrs
[7] = system: Mycobacterium tuberculosis; test: Antimycobacterial activity against Mycobacterium tuberculosis H37Rv ATCC 27294 assessed as inhibition of bacterial growth incubated for 18 to 24 hrs by broth dilution method; format: functional
[8] = system: Staphylococcus aureus; test: Antibacterial activity against Staphylococcus aureus ATCC 29213 assessed as inhibition of bacterial growth measured for 18 to 24 hrs by broth dilution method; format: functional; settings: time 18-24 hrs
[9] = system: Staphylococcus aureus; test: Antibacterial activity against methicillin/ceftriaxone/meropenem/vancomycin/teicoplanin resistant Staphylococcus aureus VRS 4 assessed as reduction in bacterial growth incubated for 18 to 24 hrs by broth dilution method; format: functional; settings: time 18-24 hrs
[10] = system: Staphylococcus aureus; test: Antibacterial activity against methicillin/ceftriaxone/meropenem resistant Staphylococcus aureus NRS 191 assessed as reduction in bacterial growth incubated for 18 to 24 hrs by broth dilution method; format: functional; settings: time 18-24 hrs
[11] = target: DNA gyrase (Escherichia coli) (UniProt P0AES6+P0AES4); test: Inhibition of Escherichia coli DNA gyrase supercoiling activity assessed as reduction in linear DNA formation at 8 times MIC incubated for 90 mins; format: protein-complex assay
[12] = system: Staphylococcus aureus; test: Antibacterial activity against methicillin/ceftriaxone/meropenem/vancomycin/teicoplanin resistant Staphylococcus aureus VRS 12 assessed as reduction in bacterial growth incubated for 18 to 24 hrs by broth dilution method; format: functional; settings: time 18-24 hrs
[13] = system: Staphylococcus aureus; test: Antibacterial activity against methicillin/ceftriaxone/meropenem/gentamycin/linezolid resistant Staphylococcus aureus NRS 119 assessed as reduction in bacterial growth incubated for 18 to 24 hrs by broth dilution method; format: functional; settings: time 18-24 hrs
[14] = Metabolic stability in human liver microsome assessed as elimination rate constant at 1 uM preincubated for 5 mins followed by NADPH addition and measured after 60 mins by LC-MS/MS analysis; format: ADME; settings: liver microsomes, time 65 min
[15] = Metabolic stability in human liver microsome assessed as intrinsic clearance at 1 uM preincubated for 5 mins followed by NADPH addition and measured after 60 mins by LC-MS/MS analysis; format: ADME; settings: liver microsomes, time 65 min, read-out: CLH
[16] = system: Staphylococcus aureus; test: Bacteriostatic activity against Staphylococcus aureus ATCC 29213 at 4 to 8 times MIC incubated for 2 to 24 hrs by time kill assay; format: functional, organism-based; settings: time 2-24 hrs
[17] = system: Staphylococcus aureus; test: Antibacterial activity against methicillin-susceptible Staphylococcus aureus assessed as reduction in bacterial growth incubated for 18 to 24 hrs by broth dilution method; format: functional; settings: time 18-24 hrs
[18] = system: Staphylococcus aureus; test: Antibacterial activity against methicillin/ceftriaxone resistant Staphylococcus aureus NRS 194 assessed as reduction in bacterial growth incubated for 18 to 24 hrs by broth dilution method; format: functional; settings: time 18-24 hrs
[19] = system: Staphylococcus aureus; test: Antibacterial activity against methicillin/ceftriaxone/meropenem resistant Staphylococcus aureus NRS 198 assessed as reduction in bacterial growth incubated for 18 to 24 hrs by broth dilution method; format: functional; settings: time 18-24 hrs
[20] = system: Staphylococcus aureus; test: Antibacterial activity against methicillin/ceftriaxone/meropenem resistant Staphylococcus aureus NRS 186 assessed as reduction in bacterial growth incubated for 18 to 24 hrs by broth dilution method; format: functional; settings: time 18-24 hrs
[21] = system: Staphylococcus aureus; test: Antibacterial activity against methicillin/ceftriaxone/meropenem resistant Staphylococcus aureus NRS 192 assessed as reduction in bacterial growth incubated for 18 to 24 hrs by broth dilution method; format: functional; settings: time 18-24 hrs
[22] = Selectivity index, ratio of CC50 for cytotoxicity against African green monkey Vero cells assessed as reduction in cell viability to MIC for antibacterial activity against Staphylococcus aureus ATCC 29213 assessed as inhibition of bacterial growth; format: toxicity, cell-based; settings: read-out: Selectivity Index
[23] = system: Staphylococcus aureus; test: Antibacterial activity against methicillin/ceftriaxone/meropenem resistant Staphylococcus aureus NRS 193 assessed as reduction in bacterial growth incubated for 18 to 24 hrs by broth dilution method; format: functional; settings: time 18-24 hrs
[24] = system: Staphylococcus aureus; test: Antibacterial activity against methicillin/ceftriaxone/meropenem/gentamycin/vancomycin/teicoplanin resistant Staphylococcus aureus VRS 1 assessed as reduction in bacterial growth incubated for 18 to 24 hrs by broth dilution method; format: functional; settings: time 18-24 hrs
[25] = system: Mycobacterium tuberculosis; test: Antimycobacterial activity against Mycobacterium tuberculosis H37Rv assessed as reduction in bacterial growth; format: functional
[26] = target: DNA gyrase (Escherichia coli, UniProt P0AES4+P0AES6); test: Inhibition of Escherichia coli DNA gyrase; format: protein-complex assay
[27] = system: Mycobacterium tuberculosis; test: Antimycobacterial activity against isoniazid-resisitant Mycobacterium tuberculosis ATCC 35822 assessed as inhibition of bacterial growth incubated for 18 to 24 hrs by broth dilution method; format: functional; settings: time 18-24 hrs
[28] = system: Mycobacterium tuberculosis; test: Antimycobacterial activity against rifampicin-resisitant Mycobacterium tuberculosis ATCC 35838 assessed as inhibition of bacterial growth incubated for 18 to 24 hrs by broth dilution method; format: functional; settings: time 18-24 hrs
[29] = Selectivity index, ratio of CC50 for cytotoxicity against African green monkey Vero cells assessed as reduction in cell viability to MIC for antibacterial activity against Mycobacterium tuberculosis H37Rv ATCC 27294 assessed as inhibition of bacterial growth; format: toxicity, cell-based; settings: read-out: Selectivity Index
[30] = system: Mycobacterium tuberculosis; test: Antimycobacterial activity against ethambutol-resisitant Mycobacterium tuberculosis ATCC 35837 assessed as inhibition of bacterial growth incubated for 18 to 24 hrs by broth dilution method; format: functional; settings: time 18-24 hrs
[31] = system: Mycobacterium tuberculosis; test: Antimycobacterial activity against streptomycin-resisitant Mycobacterium tuberculosis ATCC 35820 assessed as inhibition of bacterial growth incubated for 18 to 24 hrs by broth dilution method; format: functional; settings: time 18-24 hrs
[32] = system: Mycobacterium tuberculosis; test: Antimycobacterial activity against Mycobacterium tuberculosis assessed as reduction in bacterial growth; format: functional
[33] = system: Mycolicibacterium fortuitum; test: Antimycobacterial activity against Mycobacterium fortuitum assessed as reduction in bacterial growth incubated for 18 to 24 hrs by broth dilution method; format: functional; settings: time 18-24 hrs
[34] = system: Mycobacteroides chelonae; test: Antibacterial activity against Mycobacteroides chelonae assessed as reduction in bacterial growth incubated for 18 to 24 hrs by broth dilution method; format: functional; settings: time 18-24 hrs
[35] = system: Staphylococcus aureus; test: Antibacterial activity against Staphylococcus aureus assessed as reduction in bacterial growth; format: functional

SMILES: S=C(Nc1ccc(Cl)cc1)n1ccc(OCc2ccccc2)n1
- MIC [1]: 0.15 µM (≈ 0.0516 µg/mL)

SMILES: COc1ccc(-c2ccn(-c3ccc(NC(=O)Nc4ccc(Cl)c(Cl)c4)cc3)n2)cc1OC
- solubility at 16 h [2]: 5 µg/mL (≈ 10.3 µM)
- CC50 at 72 h [3]: 10 µg/mL (≈ 20.7 µM)
- MIC [4]: 0.25 µg/mL (≈ 0.517 µM)
- half-life at 1 µM [5]: 1.8 h
- MIC [6]: 0.25 µg/mL (≈ 0.517 µM)
- MIC [7]: 32 µg/mL (≈ 66.2 µM)
- MIC [8]: 0.25 µg/mL (≈ 0.517 µM)
- MIC [9]: 0.25 µg/mL (≈ 0.517 µM)
- MIC [10]: 0.25 µg/mL (≈ 0.517 µM)
- inhibition [11]: Active
- MIC [12]: 0.25 µg/mL (≈ 0.517 µM)
- MIC [13]: 0.25 µg/mL (≈ 0.517 µM)
- k el at 1 h, 1 µM [14]: 0.0001 s⁻¹
- microsomal CLint at 1 µM [15]: 12.4 µL/min/mg
- Activity [16]: Active
- MIC [17]: 0.25 µg/mL (≈ 0.517 µM)
- MIC [18]: 0.25 µg/mL (≈ 0.517 µM)
- MIC [19]: 0.25 µg/mL (≈ 0.517 µM)
- MIC [20]: 0.25 µg/mL (≈ 0.517 µM)
- MIC [21]: 0.25 µg/mL (≈ 0.517 µM)
- selectivity ratio [22]: 40
- MIC [23]: 0.25 µg/mL (≈ 0.517 µM)
- MIC [24]: 0.25 µg/mL (≈ 0.517 µM)

SMILES: COC(=O)c1cc(-c2cccc(NC(=O)Nc3ccc(Cl)c(Cl)c3)c2)on1
- MIC [25]: 0.25 µg/mL (≈ 0.615 µM)

SMILES: O=C(Nc1ccc(-n2ccc(-c3cc4ccccc4o3)n2)cc1)c1cc([N+](=O)[O-])cc([N+](=O)[O-])c1
- MIC [25]: 0.03 µg/mL (≈ 0.0639 µM)

SMILES: COc1ccc(Nc2n[nH]c(/N=C/c3ccc(N4CCCCC4)cc3)c2C(N)=O)cc1
- IC50 [26]: 7.69 mM

SMILES: C[C@H]1COc2c(N3CCN(C)CC3)c(F)cc3c(=O)c(C(=O)O)cn1c23 [LEVOFLOXACIN ANHYDROUS]
- MIC [4]: 0.25 µg/mL (≈ 0.692 µM)
- MIC [6]: 0.25 µg/mL (≈ 0.692 µM)
- MIC [7]: 0.25 µg/mL (≈ 0.692 µM)
- MIC [8]: 0.25 µg/mL (≈ 0.692 µM)
- MIC [9]: 32 µg/mL (≈ 88.6 µM)
- MIC [10]: 16 µg/mL (≈ 44.3 µM)
- MIC [12]: 32 µg/mL (≈ 88.6 µM)
- MIC [13]: 16 µg/mL (≈ 44.3 µM)
- MIC [17]: 0.25 µg/mL (≈ 0.692 µM)
- MIC [18]: 0.25 µg/mL (≈ 0.692 µM)
- MIC [19]: 32 µg/mL (≈ 88.6 µM)
- MIC [20]: 4 µg/mL (≈ 11.1 µM)
- MIC [21]: 8 µg/mL (≈ 22.1 µM)
- MIC [23]: 32 µg/mL (≈ 88.6 µM)
- MIC [24]: 32 µg/mL (≈ 88.6 µM)

SMILES: COc1ccc(-c2ccn(-c3ccc(NC(=O)Nc4ccc(F)cc4F)cc3)n2)cc1OC
- solubility at 16 h [2]: 6 µg/mL (≈ 13.3 µM)
- MIC [27]: > 64 µg/mL
- CC50 at 72 h [3]: > 200 µg/mL
- MIC [28]: 4 µg/mL (≈ 8.88 µM)
- selectivity ratio [29]: > 200
- half-life at 1 µM [5]: 2.14 h
- MIC [7]: 1 µg/mL (≈ 2.22 µM)
- MIC [8]: > 64 µg/mL
- k el at 1 h, 1 µM [14]: 8.33e-05 s⁻¹
- microsomal CLint at 1 µM [15]: 10.4 µL/min/mg
- MIC [30]: 64 µg/mL (≈ 142 µM)
- MIC [31]: > 64 µg/mL

SMILES: COc1ccc(-c2ccn(-c3ccc(NC(=O)NCc4ccccc4)cc3)n2)cc1OC
- CC50 at 72 h [3]: 20 µg/mL (≈ 46.7 µM)
- selectivity ratio [29]: 20
- MIC [7]: 1 µg/mL (≈ 2.33 µM)
- MIC [8]: > 64 µg/mL

SMILES: Cc1c(C(=O)NN2CCCCC2)nn(-c2ccc(Cl)cc2Cl)c1-c1ccc(Cl)cc1 [RIMONABANT]
- MIC [32]: 25 µg/mL (≈ 53.9 µM)

SMILES: COc1cc(-c2ccn(-c3ccc(NC(=O)NCc4ccccc4)cc3)n2)cc(OC)c1OC
- CC50 at 72 h [3]: < 5 µg/mL
- selectivity ratio [29]: < 10
- MIC [33]: 0.5 µg/mL (≈ 1.09 µM)
- MIC [7]: 0.5 µg/mL (≈ 1.09 µM)
- MIC [8]: > 64 µg/mL
- MIC [34]: 1 µg/mL (≈ 2.18 µM)

SMILES: CCOC(=O)c1c(N)csc1-c1cn(-c2ccccc2)nc1-c1ccc(C)cc1
- IC50 [26]: 0.0123 mM
- MIC [35]: 0.22 µg/mL (≈ 0.545 µM)

SMILES: C[C@@H](O)[C@H]1C(=O)N2C(C(=O)O)=C(S[C@@H]3CN[C@H](C(=O)N(C)C)C3)[C@H](C)[C@H]12 [MEROPENEM]
- MIC [4]: 64 µg/mL (≈ 167 µM)
- MIC [6]: 8 µg/mL (≈ 20.9 µM)
- MIC [9]: 64 µg/mL (≈ 167 µM)
- MIC [10]: 64 µg/mL (≈ 167 µM)
- MIC [12]: 2 µg/mL (≈ 5.22 µM)
- MIC [13]: 64 µg/mL (≈ 167 µM)
- MIC [17]: 0.125 µg/mL (≈ 0.326 µM)
- MIC [18]: 2 µg/mL (≈ 5.22 µM)
- MIC [19]: 64 µg/mL (≈ 167 µM)
- MIC [20]: 8 µg/mL (≈ 20.9 µM)
- MIC [21]: 16 µg/mL (≈ 41.7 µM)
- MIC [23]: 64 µg/mL (≈ 167 µM)
- MIC [24]: 64 µg/mL (≈ 167 µM)
